Experiments:
[1] = system: KB human nasopharynx cancer; test: In vitro anti-tumor activity against KB human nasopharynx cancer (MTT); format: cell-based; conditions: KB, 72 h, MTT, read-out: IC50
Procedure, shortened: (§1)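 500–2,000 cells per well were pre-cultured 20 h at 37° C, 5% CO2, then exposed to test compound for 72 h. MTT (5 mg/ml) was added for 4 h, supernatant removed and formazan dissolved in DMSO.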

[2] = system: WiDr human colorectal cancer; test: In vitro anti-tumor activity against WiDr human colorectal cancer (MTT); format: cell-based; conditions: 72 h, MTT, read-out: IC50
Procedure, shortened: as §1

[3] = system: human cancer cells (KB, MX-1, WiDr, HMV-2, LX-1) implanted in nude mice; test: Growth inhibition of human cancer cells implanted in nude mice (Test Examples 5 to 9); format: in vivo, human cancer cells in BALB/c nude mice; conditions: 50 mg/kg, FIGS. 1-9 (cell line not stated)
Experimental: In the following Test examples 5 to 9, human cancer cells were implanted in nude mice, to which test compounds dissolved in an aqueous solution containing NaOH were administered, and, thus, the degree of growth inhibition of cancer cells was observed.
FIGS. 1-9 show the variation with the lapse of days of IR.
FIGS. 10-14 show the relation between tumor weight and the lapse of days in the case where Compound 1--1 was used in Test examples 5-9. Vertical axis corresponds to tumor weight, and horizontal axis corresponds to the days which passed after the start of administration. Tumor weight was estimated from tumor diameter. The term Control in FIGS. 10-14 means tumor weight variation with days in nude mice to which, although cancer cells had been implanted, no test compounds had been administered.
In the following, there is explained schedule of administration of test compounds in nude mice. After days of × in number have passed from implantation of human cancer cells in nude mice, test compounds are intraperitoneally (ip) administered for y days, followed by wash-out periods of days of z in number. Thereafter, test compounds are administered again for y days. In this case, the cycle of administration (y days) and discontinuation (z days) is called "course". Such a schedule is denoted by marks as follows:
[(x) (y) (z) (course) (ip)]
These marks are explained below with an example. […]

CN[C@@H]1CN(c2ccc3c(=O)c(C(=O)O)cn(-c4nccs4)c3n2)C[C@H]1OC.Cl (relative stereo) [Compound 1-1, 1,4-dihydro-7-(trans-3-methoxy-4-methylamino-1-pyrrolidinyl)-4-oxo-1-(2-thiazolyl)-1,8-naphthyridine-3-carboxylic acid hydrochloride]
IC50 [1]: 0.11 µg/mL
IC50 [2]: 0.379 µg/mL
Tumor Growth Inhibition Rate IR % on the last day of observation [3]: 91%

— patent US5817669A, “Compounds, processes for the preparation thereof and anti-tumor agents” (Dainippon Pharmaceutical Co., Ltd., priority 1994, dated 1998)
